# Source: patent US10429384B2, “Compositions, kits, and methods for identification, assessment, prevention, and therapy of metabolic disorders” (Dana-Farber Cancer Institute, Inc., priority 2010, dated 2019)
# “Also recorded” adds a separate entry of the source.
# How the values were obtained:
# [1] = target: T1, wild type PPAR gamma (cdk5-mediated phosphorylation) (Mus musculus, UniProt P37238); experiment: TNF-α-induced phosphorylation of PPAR gamma in 3T3-L1 adipocytes expressing wild type PPAR gamma; format: cell-based; conditions: combined with rosiglitazone, FIG. 5A
# T1 construct: expressed in transfected cells; host or cells: 3T3-L1 adipocytes
# T1 sequence (P37238 1-505): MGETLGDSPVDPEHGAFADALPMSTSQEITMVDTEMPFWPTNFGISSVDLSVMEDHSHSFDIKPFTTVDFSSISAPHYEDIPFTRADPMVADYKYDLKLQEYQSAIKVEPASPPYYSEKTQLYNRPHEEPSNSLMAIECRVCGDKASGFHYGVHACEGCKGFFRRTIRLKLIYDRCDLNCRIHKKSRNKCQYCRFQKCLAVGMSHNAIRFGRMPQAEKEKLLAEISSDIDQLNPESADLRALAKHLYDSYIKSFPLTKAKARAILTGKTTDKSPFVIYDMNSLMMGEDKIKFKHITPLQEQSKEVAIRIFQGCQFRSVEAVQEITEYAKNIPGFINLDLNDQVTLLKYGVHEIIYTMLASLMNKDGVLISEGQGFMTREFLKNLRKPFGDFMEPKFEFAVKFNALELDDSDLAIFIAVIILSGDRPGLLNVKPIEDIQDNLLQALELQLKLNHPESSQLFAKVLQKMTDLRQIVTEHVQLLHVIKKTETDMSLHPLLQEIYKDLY
# Experimental: HEK-293 cells expressing CDK5 or PPAR gamma were collected after transfection. Total cell lysates were incubated with FLAG M2 agarose (Sigma) at 4° C. Immunoprecipitates or total cell lysates were analyzed with anti-CDK substrate, FLAG or HA (Roche) antibodies. Differentiated 3T3-L1 adipocytes were treated with TNF-α (50 ng/ml), IL-6 (50 ng/ml), IL-10 (50 ng/ml) or FFAs (400 μM palmitic acid and oleic acid mixtures) for the indicated times, and cell lysates were analyzed with phospho-specific or PPAR gamma antibodies. 3T3-L1 adipocytes were pre-treated with various PPAR gamma ligands, and incubated with TNF-α. For tissue lysates, WAT from mice was homogenized in RIPA buffer (50 mM Tris pH7.5, 150 mM NaCl, 1% NP-40, 0.5% sodium deoxycholate, 0.1% SDS with protease and phosphatase inhibitors). […] Total tissue lysates were analyzed with anti-PPAR gamma, phospho-CDK5 (Y15), CDK5 and p35 antibodies (Santa Cruz).
# [2] = target: T2, cdk5-mediated phosphorylation of PPAR gamma (serine 273) (Mus musculus, UniProt P37238); experiment: In vitro CDK5 kinase assay with cdk5/p35 and PPAR gamma as substrate; format: biochemical, murine; conditions: FIG. 5B, FIG. 6
# T2 construct: FLAG (N); made in house
# T2 sequence (P37238 1-505): T1 sequence (P37238 1-505)
# Experimental: Kinase assays were performed using an active cdk5/p35 protein and recombinant PPAR gamma protein as a substrate in kinase buffer in the presence of ATP. The reaction was stopped by adding sample buffer. Samples were then subjected to SDS-PAGE, and detected by CDK substrate antibody. In particular, active cdk5/p35, cdk1/cdc2, cdk2/cyclin A, cdk2/cyclin E or cdk4/cyclin D1 kinases were purchased from Millipore or Cell Signaling Technology. In vitro CDK kinase assay was performed according to the manufacturer's instructions (Cell Signaling Technology). […] Positive control for assay, purified histone H1 (Millipore) or Rb (Cell Signaling Technology) were used. Several PPAR gamma ligands were pre-incubated with substrates for 30 min, and the assay was performed. Phosphorylation of substrates after SDS-PAGE was analyzed with anti-CDK substrate antibody (Cell Signaling Technology).
# [3] = target: T3, cdk5 (Rb protein as substrate) (Homo sapiens, UniProt Q00535); experiment: In vitro CDK5 kinase assay with Rb as substrate; format: biochemical; conditions: selectivity control
# T3 construct: purchased Millipore or Cell Signaling Technology
# Experimental: Kinase assays were performed using an active cdk5/p35 protein and recombinant PPAR gamma protein as a substrate in kinase buffer in the presence of ATP. The reaction was stopped by adding sample buffer. Samples were then subjected to SDS-PAGE, and detected by CDK substrate antibody. In particular, active cdk5/p35, cdk1/cdc2, cdk2/cyclin A, cdk2/cyclin E or cdk4/cyclin D1 kinases were purchased from Millipore or Cell Signaling Technology. In vitro CDK kinase assay was performed according to the manufacturer's instructions (Cell Signaling Technology). Briefly, 1 μg of immuno-purified WT or S273A mutant of PPAR gamma were incubated with active CDK kinase in kinase assay buffer (25 mM Tris-HCl pH 7.5, 5 mM beta-glycerophosphate, 2 mM dithiothreitol (DTT), 0.1 mM Na3VO4, 10 mM MgCl2) containing 20 μM ATP for 15 min at 30° C. Positive control for assay, purified histone H1 (Millipore) or Rb (Cell Signaling Technology) were used. Several PPAR gamma ligands were pre-incubated with substrates for 30 min, and the assay was performed. Phosphorylation of substrates after SDS-PAGE was analyzed with anti-CDK substrate antibody (Cell Signaling Technology).
# [4] = target: T4, PPAR gamma (TNF-α-mediated phosphorylation) (Mus musculus, UniProt P37238); experiment: TNF-α-induced phosphorylation of PPAR gamma in HEK-293 cells; format: cell-based; conditions: 30 nM; FIG. 5E
# T4 construct: expressed in transfected cells; host or cells: HEK-293
# T4 sequence (P37238 1-505): T1 sequence (P37238 1-505)
# Experimental: HEK-293 cells expressing CDK5 or PPAR gamma were collected after transfection. Total cell lysates were incubated with FLAG M2 agarose (Sigma) at 4° C. Immunoprecipitates or total cell lysates were analyzed with anti-CDK substrate, FLAG or HA (Roche) antibodies. Differentiated 3T3-L1 adipocytes were treated with TNF-α (50 ng/ml), IL-6 (50 ng/ml), IL-10 (50 ng/ml) or FFAs (400 μM palmitic acid and oleic acid mixtures) for the indicated times, and cell lysates were analyzed with phospho-specific or PPAR gamma antibodies. 3T3-L1 adipocytes were pre-treated with various PPAR gamma ligands, and incubated with TNF-α. […] Phosphorylation of PPAR gamma on Ser112 or Ser273 was detected by phospho-specific antibodies (Ser112, Millipore, MAB3632).
# [5] = target: T5, PPAR gamma (PPAR transcriptional response element) (Mus musculus, UniProt P37238); experiment: Reporter gene assay, PPAR-derived reporter gene in HEK-293 cells; format: cell-based
# T5 construct: expressed in transfected cells; host or cells: HEK-293
# T5 sequence (P37238 1-505): T1 sequence (P37238 1-505)
# T5 sequence (P19793 1-462 partner): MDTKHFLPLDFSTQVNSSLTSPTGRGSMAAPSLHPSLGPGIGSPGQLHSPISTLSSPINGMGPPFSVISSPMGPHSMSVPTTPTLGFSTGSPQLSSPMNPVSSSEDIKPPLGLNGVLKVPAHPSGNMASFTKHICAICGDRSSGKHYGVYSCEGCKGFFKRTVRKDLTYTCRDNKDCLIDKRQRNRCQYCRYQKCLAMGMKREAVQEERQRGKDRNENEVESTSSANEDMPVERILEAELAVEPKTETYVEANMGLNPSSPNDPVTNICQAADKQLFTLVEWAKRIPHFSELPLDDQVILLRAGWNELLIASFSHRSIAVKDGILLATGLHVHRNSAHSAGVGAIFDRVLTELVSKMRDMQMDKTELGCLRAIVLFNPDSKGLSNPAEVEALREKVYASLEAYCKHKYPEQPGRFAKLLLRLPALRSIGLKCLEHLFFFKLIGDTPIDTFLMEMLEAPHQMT
# Experimental: In some examples, HEK-293 cells were seeded in 12-well plates at 1.5×10^5 cells/well. HEK-293 cells were transfected with pDR-1 (3×, based on the UCP1 PPAR gamma recognition site)-luciferase reporter plasmid, PPAR gamma, RXRa and pRL-renillin using Lipofectamine 2000 (Invitrogen). […] The cells were harvested and reporter gene assays were carried out using the Dual-Luciferase kit (Promega). Luciferase activity was normalized to renillia activity.
# [6] = target: T6, cdk5-mediated phosphorylation of PPAR gamma in adipose tissue (Mus musculus, UniProt P37238); experiment: Phosphorylation of PPAR gamma in adipose tissue (WAT) of treated high-fat fed mice; format: in vivo; conditions: 10 mg/kg for 7 days, FIG. 9D
# T6 construct: For tissue lysates, WAT from mice was homogenized in RIPA buffer; from tissue; host or cells: white adipose tissue of C57BL/6J mice on high fat diet
# T6 sequence (P37238 1-505): T1 sequence (P37238 1-505)
# Experimental: For tissue lysates, WAT from mice was homogenized in RIPA buffer (50 mM Tris pH7.5, 150 mM NaCl, 1% NP-40, 0.5% sodium deoxycholate, 0.1% SDS with protease and phosphatase inhibitors). […] Total tissue lysates were analyzed with anti-PPAR gamma, phospho-CDK5 (Y15), CDK5 and p35 antibodies (Santa Cruz). Phosphorylation of PPAR gamma on Ser112 or Ser273 was detected by phospho-specific antibodies (Ser112, Millipore, MAB3632).
# 4 to 5-week old male C57BL/6J mice were obtained from the Jackson Laboratory.
# mice [7] = experiment: Whole body oxygen consumption (CLAMS) in treated mice; format: in vivo; conditions: 10 mg/kg for 10 days
# [8] = tested on: PPAR gamma-null fibroblasts expressing WT PPAR gamma; experiment: Microarray analysis of differentiated PPAR gamma-null fibroblasts expressing wild type PPAR gamma; format: cell-based, mouse; conditions: 1 μM, 24 hours; FIG. 5F
# Excerpt: To create refined gene sets regulated by cdk5 phosphorylation of PPAR gamma, p-value as well as fold-change of gene expression in WT versus S273A mutant cells was first calculated, and—log p-value versus log2 fold-change was plotted.
# mice [9] = conditions: Acton et al. 2005; cited from earlier work
# adipogenesis = conditions: cited from earlier work
# high-fat fed mice = experiment: Glucose tolerance, fasting insulin and body weight in high-fat fed mice; conditions: 10 mg/kg for 7 days
# Experimental: 4 to 5-week old male C57BL/6J mice were obtained from the Jackson Laboratory. Mice were fed a regular diet (10% kcal fat, D12450B, Research Diets Inc.) or a high fat diet (60% kcal fat, D12492, Research Diets Inc.) as indicated time periods. […] Glucose was measured in tail vain blood at intervals after glucose injection using a Truetrack glucometer. Serum insulin concentrations were determined by ELISA (Crystal Chem).
# T3 sequence (Q00535 whole entry, species assumed): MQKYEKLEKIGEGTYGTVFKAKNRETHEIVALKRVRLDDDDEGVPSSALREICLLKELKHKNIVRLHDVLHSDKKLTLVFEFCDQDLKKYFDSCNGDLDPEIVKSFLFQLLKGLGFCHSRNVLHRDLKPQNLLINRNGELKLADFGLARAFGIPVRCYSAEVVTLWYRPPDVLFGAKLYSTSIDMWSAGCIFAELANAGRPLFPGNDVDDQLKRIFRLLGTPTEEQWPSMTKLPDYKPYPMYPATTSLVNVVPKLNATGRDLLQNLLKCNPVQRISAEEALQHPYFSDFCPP
# T3 sequence (Q15078 whole entry partner, species assumed): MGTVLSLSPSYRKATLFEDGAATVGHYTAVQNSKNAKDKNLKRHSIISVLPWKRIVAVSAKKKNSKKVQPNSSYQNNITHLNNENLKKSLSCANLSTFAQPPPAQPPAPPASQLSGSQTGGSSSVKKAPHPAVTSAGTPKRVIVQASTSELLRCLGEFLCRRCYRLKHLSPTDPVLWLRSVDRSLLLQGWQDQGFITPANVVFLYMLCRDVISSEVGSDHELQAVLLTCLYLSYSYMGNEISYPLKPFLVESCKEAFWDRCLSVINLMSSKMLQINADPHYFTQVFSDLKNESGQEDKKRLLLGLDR
smiles,measurement,setting,value
O=C(Nc1ccccc1)c1cc([N+](=O)[O-])ccc1Cl [GW 9662],effect of antagonist on rosiglitazone inhibition of PPAR gamma phosphorylation,[1],completely blocked this effect of rosiglitazone
COc1ccc(C(=O)n2c(C)c(Cc3cccc(O[C@@H](C)C(=O)O)c3)c3cc(OC(F)(F)F)ccc32)cc1 [MRL24],blocking of cdk5-mediated phosphorylation of PPAR gamma,[2],very effective at blocking the cdk5-mediated phosphorylation of PPAR gamma
same,inhibition of cdk5 phosphorylation of Rb,[3],retained full ability to phosphorylate Rb
same,block of TNF-α-mediated phosphorylation of PPAR gamma,[4],blocked the TNF-α-mediated phosphorylation of PPAR gamma essentially completely
same,agonist activity on PPAR gamma at 30 nM,"[5]; 30 nM, same cells as phosphorylation test",essentially undetectable agonist activity
same,agonist activity on a PPAR transcriptional response element,[5]; compared to rosiglitazone,very weak agonist activity; also recorded: only a small fraction of the agonist activity of rosiglitazone
same,cdk5-mediated phosphorylation of PPAR gamma in adipose tissue,[6],reduced the cdk5-mediated phosphorylation of PPAR gamma in the adipose tissue of every mouse
same,whole body oxygen consumption,mice [7],selectively increase whole body oxygen consumption in vivo
same,"expression of gene cluster ""c"" (genes increased by the cdk5 site mutation)",[8],corresponded remarkably well to the gene set induced by the mutation in the cdk5 site of PPAR gamma
same,"expression of gene group ""a"" (genes activated by cdk5 phosphorylation of PPAR gamma)",[8],suppressed
same,anti-diabetic activity,mice [9],excellent anti-diabetic activity in mice
same,ability to promote adipogenesis,adipogenesis,virtually no ability to promote adipogenesis
same,fasting insulin levels,high-fat fed mice,reduced fasting insulin levels
same,glucose tolerance,high-fat fed mice,dramatically improved glucose tolerance
CN(CCOc1ccc(CC2SC(=O)NC2=O)cc1)c1ccccn1 (stereo not drawn) [rosiglitazone],body weight,high-fat fed mice,without inducing changes in body weight
